Data as given in patent US20250170252A1, “QUINONE PROTECTED FORMS AND CONJUGATES” (CAMBRIDGE ENTERPRISE LIMITED, priority 2022, published 2025).

How the values were obtained:
Assay type in all cases: cell-based
[1] = system: MOLM-13; test: Viability assay with small molecule prodrugs, Trypan Blue exclusion, MOLM-13; details: 5 μM, 24 h timepoint
Protocol: For assays assessing cytotoxicity of β-lapachone versus small molecule dipeptide prodrugs, suspension cells were plated into 24 well plates at a density of 2.5×10^5 cells/mL in 240 μL. Serial dilutions of compound were made up in PBS. 60 μL of each stock of either PBS, or compound in PBS was added to the cells to achieve the desired final concentration. After the specified incubation time, toxicity was assessed by counting of live cells using the Trypan Blue exclusion method with a Countess II Automated Cell Counter (ThermoFisher Scientific) according to the manufacturer's instructions. Cell viability was determined by division of average live cell number of treated wells by average live cell number for control wells treated with PBS only. Values recorded are the mean of three repeat wells, with error bars representing the standard error of the mean for each concentration tested. IC50 values were calculated using GraphPad Prism software.

[2] = system: HL-60 cells; test: N-acetyl cysteine cytotoxicity assay
Protocol: For assays involving cytotoxicity of β-lapachone derivatives with and without antioxidant N—-acetyl cysteine, HL-60 cells were plated into 24 well plates at a concentration of 2.5×10^5 cells/mL in 450 μL. To each well was then added 25 μL of drug diluted in PBS to obtain the correct in-plate drug concentration, and 25 μL of PBS or a stock of N-acetyl cysteine at 12 mM in PBS. DMSO was maintained at an in-plate concentration of 0.1%. After 96 h incubation, toxicity was assessed by counting of live cells using the Trypan Blue exclusion method with a Countess II Automated Cell Counter (ThermoFisher Scientific) according to the manufacturer's instructions. Cell viability was determined by division of average live cell number of treated wells by average live cell number for control wells treated with 0.1% DMSO. […] Values recorded are the mean of three repeat wells, with error bars representing the standard error of the mean for each concentration tested.

[3] = system: Aspc-1 pancreatic cancer cell line; test: CellTiter Glo viability assay, Aspc-1; details: Homo sapiens, ASPC1; Aspc-1, β-lapachone alone, 48 hours; read-out: IC50
Protocol: For CellTiter Glo viability assays, 10,000 cells per well were plated on Day 1 and were allowed to adhere to the plate surface for 24 hours. Optimized concentration ranges of prodrugs were determined and made via serial dilution. […] Cells were incubated with compound for 48 hours and viability was assessed on Day 4 using the CellTiter Glo Viability assay which measures metabolically active cells by quantifying the amount of ATP present.
Panc-1 cells were obtained from Tony Kouzarides' lab in the Gurdon Institute at the University of Cambridge and put into culture at passage 10 containing DMEM media (Gibco) supplemented with 1% Pen-Strep antibiotic (Gibco), 1% L-glutamine, and 10% fetal bovine serum (FBS, sterile-filtered). Aspc-1 cells were bought commercially from the American Type Culture Collection (ATCC) and put into culture containing RPMI 1640 media (Gibco) supplemented with 1% Pen-Strep antibiotic (Gibco), 1% L-glutamine, and 20% fetal bovine serum (FBS, sterile-filtered). All cell lines were started at passage 10 and passaged every 3 days by centrifuging at 1000 rpm for 4 minutes.

[4] = system: HL-60 cells; test: Lysosomal inhibition assay with small molecule prodrugs; details: HL-60, NH4Cl at 30 mM
Protocol: Assays to assess the effect of lysosomal activity on prodrugs were performed as follows: HL-60 cells were plated into 96 well plates at a concentration of 2.5×10^5 cells/mL in 180 μL media. Cells were treated with 10 μL of a stock of NH4Cl in PBS (to obtain an in-plate concentration of 3 or 30 mM), 10 μL of a dilution of a DMSO stock of E64d in PBS (to obtain an in-plate concentration of 30 μM), PBS only, or a dilution of DMSO in PBS. Cells were incubated for 30 min. Following this, 10 μL of a stock of test compound made by dilution of a DMSO stock into media was added. DMSO was present in-plate at a maximum of 0.2%. Cells were incubated overnight for 16 h. Following incubation, media was replaced with media containing CellTiter-Blue (Promega) in 1:4 dilution and the plates were incubated for 6 h. The fluorescence of the plates was recorded (excitation 555 nm, emission 585 nm, MiniMax i3x Reader, Molecular Devices). Cell viability was calculated by division of the fluorescence intensity of treated wells by that of the calculated average fluorescence intensity of the relevant negative control wells. Values and reported error bars represent the mean and standard error of the mean of three triplicate repeats for each concentration tested.

[5] = system: HCT-116 (colon cancer cell line); test: Viability assay (CellTiter-Blue), HCT-116; details: Homo sapiens
Protocol: (§1) Assays assessing cytotoxicity of β-lapachone and derivatives were performed by CellTiter-Blue assay (Promega) according to the manufacturer's instructions. Briefly, adherent cancer-cell lines were plated at 20,000 cells/well in 96 well plates or suspension cell lines were plated at a concentration of 2×10^5 cells/mL in 24 well plates. Compound stocks in media were made by dilution of DMSO stocks containing the compound of interest to obtain a final in-plate DMSO concentration of only 0.1%. Incubation was performed for 48 h. Following incubation, media was replaced with media containing CellTiter-Blue (Promega) in 1:10 dilution and the plates were incubated for 1.5-4 h. The fluorescence of the plates was recorded (excitation 555 nm, emission 585 nm, […] Reader, Molecular Devices). Cell viability was calculated by division of the fluorescence intensity of treated wells by that of the calculated average fluorescence intensity of replicate negative control wells containing cells with 0.1% DMSO only. Values and reported error bars represent the mean and standard error of the mean of three triplicate repeats for each concentration tested.

[6] = system: SKBR3 (breast cancer cell line); test: Viability assay (CellTiter-Blue), SKBR3; details: Homo sapiens, SK-BR-3
Protocol: as §1

IC50 [3]: 7660 nM
IC50 [5]: 1100 nM
IC50 [6]: 2800 nM
Structure (SMILES): CC1(C)CCC2=C(O1)c1ccccc1C(=O)C2=O [Compound 1, β-lapachone, reference compound]
toxicity to MOLM-13 [1]: complete cell death
change of IC50 upon NAC addition ([2]; HL-60): more than doubled
IC50 ([2]; Homo sapiens, HL-60, HL-60, without NAC): 470 ± 260 nM
toxicity with NH4Cl [4]: increase in toxicity
